Legend:
human SCD1 = human SCD1 (Homo sapiens (Human), UniProt O00767); assay: Yeast growth assay, strain expressing human SCD1 as the sole desaturase (reduced growth as surrogate for SCD inhibition); format: cell-based; settings: yeast with OLE1 deleted expressing human SCD1 from a plasmid; growth read as OD600 after 40 h at 30° C.; top drug concentration 33.3 μM
Summary of the method: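 Yeast lacking OLE1 depend on plasmid-borne human SCD1 or SCD5 and are tested in SD-Ura medium without oleic/palmitoleic acid or Tween.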

human SCD5 = human SCD5 (Homo sapiens (Human), UniProt Q86SK9); assay: Yeast growth assay, strain expressing human SCD5 as the sole desaturase (reduced growth as surrogate for SCD inhibition); format: cell-based; settings: yeast with OLE1 deleted expressing human SCD5 from a plasmid; growth read as OD600 after 40 h at 30° C.; top drug concentration 33.3 μM
Protocol: Strains expressing SCD1 or SCD5 as the sole desaturase, the human SCD1 and SCD5 genes were used to evaluate inhibition of SCD1/SCD5 using reduced growth as a surrogate for SCD inhibition. These yeast strains express human SCD1 or SCD5 from a plasmid harbored in a strain in which the yeast OLE1 gene is deleted.
All compound profiling experiments were performed using the same basic protocol. Yeast were cultured using standard techniques in complete synthetic media lacking uracil and containing yeast nitrogen base supplemented with 2% (w/v) glucose (SD-Ura) Starter cultures were inoculated in 3 mL SD-Ura media containing 0.01% tween and 0.2 mM palmitoleic and oleic acid. Cultures were incubated overnight in a 30° C. shaker incubator (225 rpm). Saturated morning cultures were centrifuged, washed in SD-Ura media lacking TWEEN-20 and fatty acids, and then diluted 1:20 in fresh SD-Ura media also lacking TWEEN-20 and fatty acids.
Compound administration was performed in two separate steps. First, 15 μL of SD-Ura was dispensed into clear 384-well assay plates using a MULTIDROP™ Combi reagent dispenser. […] The cultures described above were centrifuged and washed with media lacking TWEEN-20 or oleic and palmitoleic acids.
After yeast delivery, assay plates were incubated under humidified conditions at 30° C. for 40 h. Yeast growth was monitored by reading the OD600 of each well using a microplate reader (Perkin Elmer EnVision™).

Chain of human SCD5 (Q86SK9 whole entry): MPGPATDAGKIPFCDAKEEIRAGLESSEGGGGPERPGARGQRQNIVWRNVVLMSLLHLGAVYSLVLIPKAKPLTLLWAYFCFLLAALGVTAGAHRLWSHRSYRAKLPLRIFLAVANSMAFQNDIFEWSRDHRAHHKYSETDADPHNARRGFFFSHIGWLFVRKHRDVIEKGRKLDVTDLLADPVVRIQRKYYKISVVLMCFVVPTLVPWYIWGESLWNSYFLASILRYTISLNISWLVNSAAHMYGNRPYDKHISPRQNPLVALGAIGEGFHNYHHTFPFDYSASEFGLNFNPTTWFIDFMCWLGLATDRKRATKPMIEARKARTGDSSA
Chain of human SCD1 (O00767 whole entry): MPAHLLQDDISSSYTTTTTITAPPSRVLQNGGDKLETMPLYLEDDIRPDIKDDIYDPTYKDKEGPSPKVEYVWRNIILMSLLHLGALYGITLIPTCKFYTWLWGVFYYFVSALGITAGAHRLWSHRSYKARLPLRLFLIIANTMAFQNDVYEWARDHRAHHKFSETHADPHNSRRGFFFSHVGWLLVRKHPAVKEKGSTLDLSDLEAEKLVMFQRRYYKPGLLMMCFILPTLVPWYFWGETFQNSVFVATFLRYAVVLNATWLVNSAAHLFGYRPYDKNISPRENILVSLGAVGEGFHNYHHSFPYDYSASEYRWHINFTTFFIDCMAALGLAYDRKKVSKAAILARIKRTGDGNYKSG

Compound	IC50 (human SCD1) [µM]	IC50 (human SCD5) [µM]
CC(C)(c1ccccc1)n1cc(NC(=O)c2cc(-c3ccccc3)on2)cn1 [Compound 64]	> 45	> 45
O=C(Nc1cnn(Cc2cc(F)ccc2C(F)(F)F)c1)c1cc(-c2ncccc2F)on1 [Compound 107]	> 45	> 45
N#Cc1ccc(Cn2cc(NC(=O)c3cc(-c4ccccc4)on3)cn2)s1 [Compound 43]	> 45	> 45
O=C(c1cc(-c2ccc3c(c2)OCO3)on1)N1CC(Cc2ccccc2)C1 [Compound 216, [5-(1,3-benzodioxol-5-yl)isoxazol-3-yl]-(3-benzylazetidin-1-yl)methanone]	> 45	1.13
O=C(c1cc(-c2ccc3c(c2)OCO3)on1)N1CCCC1Cc1ccccc1 (stereo not shown) [Compound 434]	> 45	4.67
CN(C(=O)c1cc(-c2ccccc2)on1)c1cnn(Cc2cc(F)ccc2C(F)(F)F)c1 [Compound 76]	> 45	> 45
NC(=O)c1cc(C(=O)Nc2cnn(Cc3ccccc3)c2)no1 [Compound 48]	> 45	> 45
O=C(c1cc(-c2ccc3c(c2)OCO3)on1)N1CCC1c1ccc(F)cc1 (stereo not shown) [Compound 223, [5-(1,3-benzodioxol-5-yl)isoxazol-3-yl]-[2-(4-fluorophenyl)azetidin-1-yl]methanone]	> 45	3.26
O=C(c1cc(-c2ccc3c(c2)OCO3)on1)N1CCC(c2ccncc2)CC1 [Compound 293]	> 45	> 45
CC1(C(=O)Nc2ccccc2)CN(C(=O)c2cc(-c3ccccc3)on2)C1 [Compound 238]	> 45	> 45
O=C(NC1CN(C(=O)c2cc(-c3ccccc3)on2)C1)c1ccccc1 [Compound 240]	> 45	> 45
O=C(Nc1noc(Cc2ccccc2)n1)c1cc(-c2ccccc2)on1 [Compound 79]	> 45	> 45
O=C(c1cc(-c2ccc3nccnc3c2)on1)N1CCC[C@H]1c1ccccc1 [Compound 450]	> 45	> 45
Cc1cc(C2CCCN2C(=O)c2cc(-c3ccc4c(c3)OCO4)on2)no1 (stereo not shown) [Compound 442]	> 45	> 45
N#Cc1ccc(CN(C(=O)c2cc(-c3ccccc3)on2)c2cnn(Cc3ccc(C#N)cc3)c2)cc1 [Compound 47]	> 45	> 45
O=C(c1cc(-c2ccc3c(c2)OCO3)on1)N1Cc2ccccc2C1 [Compound 328]	> 45	> 45
COc1cc(F)ccc1C1CCCN1C(=O)c1cc(-c2ccc3c(c2)OCO3)on1 (stereo not shown) [Compound 430]	> 45	30
NC(=O)c1cc(C(=O)Nc2cnn(Cc3cccc(F)c3)c2)no1 [Compound 162]	> 45	> 45
O=C(Nc1cnn(Cc2ccccn2)c1)c1cc(-c2ccccc2)on1 [Compound 40]	> 45	> 45
Cc1nnc(-c2cc(C(=O)Nc3cnn(Cc4ccccc4)c3)no2)s1 [Compound 163]	> 45	> 45
Cc1nn(C)c2cc(-c3cc(CN4C(=O)OCC4c4ccccc4)no3)ccc12 (stereo not shown) [Compound 273]	> 45	39.2
O=C(Nc1cnn(Cc2ccccc2)c1)c1cc(-c2c(F)cccc2F)on1 [Compound 195]	> 45	> 45
N#Cc1ccccc1-c1cc(C(=O)N2CCC(c3ccccc3)CC2)no1 [Compound 326, 2-(3-(4-phenylpiperidine-1-carbonyl)isoxazol-5-yl)benzonitrile]	> 45	5.7
O=C(Nc1cnn(CC2CC2)c1)c1cc(-c2ccccc2)on1 [Compound 41]	> 45	> 45
O=C(Nc1cnn(CC2CCOCC2)c1)c1cc(-c2ccco2)on1 [Compound 31]	> 45	> 45
CC(C)(O)c1cc(C(=O)Nc2cnn(Cc3ccccc3)c2)on1 [Compound 152]	> 45	> 45
COc1ccc(-c2cc(NC(=O)[C@@H]3CCCN3c3ccccc3)on2)cc1 [Compound 445]	> 45	> 45
O=C(Nc1cnn(Cc2ccc(F)cc2)c1)c1cc(-c2ccccc2)on1 [Compound 112]	> 45	> 45
N#Cc1ccc(-c2cc(C(=O)N3CCC(c4ccccc4)CC3)no2)cc1 [Compound 316, 4-(3-(4-phenylpiperidine-1-carbonyl)isoxazol-5-yl)benzonitrile]	> 45	0.7

Second part, the molecule after the results:

IC50 (human SCD1) [µM]	IC50 (human SCD5) [µM]	Compound
> 45	1.63	Cn1ncc2ccc(-c3cc(C(=O)N4CC(c5ccccc5)C4)no3)cc21 [Compound 232, (5-(1-methyl-1H-indazol-6-yl)isoxazol-3-yl)(3-phenylazetidin-1-yl)methanone]
0.084	> 45	O=C(Nc1cnn(Cc2cccc(F)c2)c1)c1cc(-c2ccon2)on1 [Compound 72]
2.04	> 45	O=C(Nc1cnn(Cc2cccc(F)c2)c1)c1cc(-c2ccccn2)on1 [Compound 54]
> 45	> 45	O=C(c1cnn(Cc2ccncc2)c1)c1cc(-c2ccccc2)on1 [Compound 138]
19	5.58	O=C(c1cc(-c2ccccc2)on1)N1CCN(c2cc(F)ccc2Cl)CC1 [Compound 297, (4-(2-chloro-5-fluorophenyl)piperazin-1-yl)(5-phenylisoxazol-3-yl)methanone]
> 45	> 45	O=C(c1cc(-c2ccccc2)on1)N1CCC(c2ccc(F)cc2)C1 (stereo not shown) [Compound 334]
> 45	> 45	Cc1nn(C)c2cc(-c3cc(C(=O)N4CCCC4c4ccnnc4)no3)ccc12 (stereo not shown) [Compound 458]
> 45	5	O=C(c1cc(-c2cnccn2)on1)N1CC(c2ccccc2)C1 [Compound 259, (3-phenylazetidin-1-yl)(5-(pyrazin-2-yl)isoxazol-3-yl)methanone]
> 45	> 45	O=C(Nc1cnn(Cc2cc(F)ccc2C(F)(F)F)c1)c1cc(-c2ccccn2)on1 [Compound 77]
> 45	> 45	O=C(Nc1cnn(Cc2ccccc2)c1)c1cc(-c2cccc3cnn(C4COC4)c23)on1 [Compound 96]
0.737	6.97	O=C(Nc1cnn(Cc2cccc(F)c2)c1)c1cc(C2COC2)on1 [Compound 139, N-(1-(3-fluorobenzyl)-1H-pyrazol-4-yl)-5-(oxetan-3-yl)isoxazole-3-carboxamide]
12	> 45	Cn1cccc(-c2cc(C(=O)Nc3cnn(Cc4cccc(F)c4)c3)no2)c1=O [Compound 89]
30.4	4.92	O=C(c1cc(-c2ccc3c(c2)OCO3)on1)N1CCCC12CC2 [Compound 371]
2.5	1	O=C(c1cc(-c2ccncn2)on1)N1CC(Cc2ccccc2)C1 [Compound 258, (3-benzylazetidin-1-yl)(5-(pyrimidin-4-yl)isoxazol-3-yl)methanone]
43.5	> 45	COc1ccc(C2CCCN2C(=O)c2cc(-c3ccc(OC)c(F)c3)on2)cc1 (stereo not shown) [Compound 382]
4.52	1.62	O=C(c1cc(-c2ccccc2)on1)N1CC(c2ccccc2)C1 [Compound 212, (3-phenylazetidin-1-yl)-(5-phenylisoxazol-3-yl)methanone]
7.61	> 45	NC(=O)c1cc(C(=O)N2CCC(c3ccccc3)C2)no1 (stereo not shown) [Compound 348]
6.22	2.92	O=C(c1cc(-c2ccc3c(c2)OCO3)on1)N1CCC(Oc2ccccc2)CC1 [Compound 298, [5-(1,3-benzodioxol-5-yl)isoxazol-3-yl]-(4-phenoxy-1-piperidyl)methanone]
0.11	2	O=C(Nc1cnn(Cc2ccccc2)c1)c1cc(C2CC2)on1 [Compound 119, N-(1-benzyl-1H-pyrazol-4-yl)-5-cyclopropylisoxazole-3-carboxamide]
32.2	> 45	COc1ccc(C2CCCN2C(=O)c2cc(-c3ccc(OC)c(OC)c3)on2)cc1 (stereo not shown) [Compound 374]
0.59	> 45	O=C(Nc1cnn(Cc2cccc(F)c2)c1)c1cc(-c2cccnc2)on1 [Compound 55]
0.49	> 45	O=C(c1cc(-c2ccccc2)on1)N1CC(Oc2ccccc2)C1 [Compound 213]
5.32	4.96	O=C(Nc1cnn(Cc2ccccc2)c1)c1cc(-c2ccncc2Cl)on1 [Compound 134, N-(1-benzyl-1H-pyrazol-4-yl)-5-(3-chloropyridin-4-yl)isoxazole-3-carboxamide]
4.62	> 45	N#Cc1cccc(-c2cc(C(=O)Nc3cnn(Cc4ccccc4)c3)no2)c1 [Compound 127]
